Measured values from patent US20250236613A1, “SARM1 MODULATORS, PREPARATIONS, AND USES THEREOF” (SIRONAX LTD., priority 2021, published 2025).

Biological target: SARM1 (50-724) (Homo sapiens (Human), UniProt Q6SZW1)
Assay: SARM1 (50-724) enzymatic assay
Format: biochemical
Conditions: SARM1 inhibitory activity; 2 nM SARM1 (50-724), 200 μM NMN activator, 100 μM NAD+ substrate, 1 h, LC-MS/MS
Protocol: The enzymatic assay was performed in a 384-well plate using Dulbecco's PBS buffer as the reaction buffer. Purified SARM1 (50-724) with a final concentration of 2 nM was pre-incubated with the test compound at 1% DMSO final assay concentration for 15 min at room temperature. The reaction was initiated by adding the mixture of 200 μM NMN as activator and 100 μM NAD^+ as substrate. After 1 h of incubation at room temperature, the reaction was terminated with 10 times volume of 70% acetonitrile, then centrifuged at 3800 rpm for 10 min. The samples were analyzed using LC-MS/MS after diluted to the proper concentration by 10 mM ammonium acetate (pH 9.75).

Chain of SARM1 (50-724) (Q6SZW1 50-724): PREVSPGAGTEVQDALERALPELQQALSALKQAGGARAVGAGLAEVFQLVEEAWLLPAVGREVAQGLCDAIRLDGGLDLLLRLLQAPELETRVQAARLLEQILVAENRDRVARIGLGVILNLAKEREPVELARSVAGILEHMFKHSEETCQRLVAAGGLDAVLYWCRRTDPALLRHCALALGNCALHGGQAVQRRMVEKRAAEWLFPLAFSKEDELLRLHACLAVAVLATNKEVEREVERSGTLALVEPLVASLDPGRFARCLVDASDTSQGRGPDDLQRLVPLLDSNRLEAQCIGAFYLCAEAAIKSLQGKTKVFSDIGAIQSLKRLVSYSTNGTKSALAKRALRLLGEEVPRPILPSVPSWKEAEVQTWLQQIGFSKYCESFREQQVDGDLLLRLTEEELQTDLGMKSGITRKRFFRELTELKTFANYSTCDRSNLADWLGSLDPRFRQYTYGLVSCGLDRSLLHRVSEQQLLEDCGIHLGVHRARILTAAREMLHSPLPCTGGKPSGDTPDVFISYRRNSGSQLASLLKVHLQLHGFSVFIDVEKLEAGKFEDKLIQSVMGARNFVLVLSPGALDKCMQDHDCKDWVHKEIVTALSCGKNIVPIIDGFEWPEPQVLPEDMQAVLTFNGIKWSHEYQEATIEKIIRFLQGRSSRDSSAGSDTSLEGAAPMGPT

Compound | IC50 [µM]
Cc1ccncc1-c1ccc2[nH]nc(N)c2c1 [Compound 65, 5-(4-methylpyridin-3-yl)-1H-indazol-3-amine] | > 30
Cc1cc(Cl)ncc1-c1ccc2[nH]c(=O)oc2c1 [Compound 66, 6-(6-chloro-4-methylpyridin-3-yl)benzo[d]oxazol-2(3H)-one] | 15 to 30
Cc1cc(C)c(-c2ccc3[nH]c(=O)oc3c2)cn1 [Compound 67, 6-(4,6-dimethylpyridin-3-yl)benzo[d]oxazol-2(3H)-one] | 15 to 30
Cc1ccncc1-c1ccc(NC(=N)N)cc1 [Compound 69, 1-(4-(4-methylpyridin-3-yl)phenyl)guanidine] | 15 to 30
Cc1ccncc1-c1ccc2c(c1)N(C)S(=O)(=O)N2 [Compound 70, 1-methyl-6-(4-methylpyridin-3-yl)-1,3-dihydrobenzo[c][1,2,5]thiadiazole 2,2-dioxide] | 15 to 30
Cc1ccncc1-c1ccc2nc(N)ncc2c1 [Compound 71, 6-(4-methylpyridin-3-yl)quinazolin-2-amine] | 15 to 30
Cc1ccncc1-c1ccc2c(c1)NC(=O)NC2 [Compound 72, 7-(4-methylpyridin-3-yl)-3,4-dihydroquinazolin-2(1H)-one] | 5 to 15
Cc1ccncc1-c1ccc2[nH]ncc2c1F [Compound 74, 4-fluoro-5-(4-methylpyridin-3-yl)-1H-indazole] | 15 to 30
Nc1cncc(-c2ccc3[nH]c(=O)oc3c2)c1 [Compound 77, 6-(5-aminopyridin-3-yl)benzo[d]oxazol-2(3H)-one] | 5 to 15
Cc1ncncc1-c1ccc2[nH]c(=O)oc2c1 [Compound 78, 6-(4-methylpyrimidin-5-yl)benzo[d]oxazol-2(3H)-one] | > 30
Cc1ccncc1-c1ccc2c(c1)CNC(=N)N2 [Compound 79, 6-(4-methylpyridin-3-yl)-3,4-dihydroquinazolin-2(1H)-imine] | < 5
Cc1c[nH]c(=O)cc1-c1ccc2[nH]c(=O)oc2c1 [Compound 82, 6-(5-methyl-2-oxo-1,2-dihydropyridin-4-yl)benzo[d]oxazol-2(3H)-one] | 15 to 30
Cc1ccncc1-c1ccc2c(c1)OCCC(=O)N2 [Compound 85, 8-(4-methylpyridin-3-yl)-2,3-dihydrobenzo[b][1,4]oxazepin-4(5H)-one] | 5 to 15
Cc1ccncc1-c1ccc2[nH]c(=O)oc2c1F [Compound 91, 7-fluoro-6-(4-methylpyridin-3-yl)benzo[d]oxazol-2(3H)-one] | 15 to 30
Cc1ccncc1-c1ccc2[nH]nc(C(F)(F)F)c2c1 [Compound 93, 5-(4-methylpyridin-3-yl)-3-(trifluoromethyl)-1H-indazole] | 5 to 15
CC(C)c1cccc(Nc2cncc(-c3ccc4[nH]c(=O)oc4c3)c2)c1 [Compound 103, 6-(5-((3-isopropylphenyl)amino)pyridin-3-yl)benzo[d]oxazol-2(3H)-one] | < 5
O=c1[nH]c2ccc(-c3cncc(Nc4ccc(Cl)cc4)c3)cc2o1 [Compound 104, 6-(5-((4-chlorophenyl)amino)pyridin-3-yl)benzo[d]oxazol-2(3H)-one] | < 5

The remaining lines, values ahead:

IC50 [µM] | Compound
< 5 | Cc1ccncc1-c1ccc2[nH]nc(F)c2c1 [Compound 68, 3-fluoro-5-(4-methylpyridin-3-yl)-1H-indazole]
< 5 | CC(=O)Nc1nc2cc(-c3cnccc3C)ccc2[nH]1 [Compound 73, N-(5-(4-methylpyridin-3-yl)-1H-benzo[d]imidazol-2-yl)acetamide]
< 5 | Cc1ccncc1-c1ccc2[nH]c(=S)oc2c1 [Compound 75, 6-(4-methylpyridin-3-yl)benzo[d]oxazole-2(3H)-thione]
< 5 | Cc1ccncc1-c1ccc2c(c1)C(=O)C(=O)N2 [Compound 76, 5-(4-methylpyridin-3-yl)indoline-2,3-dione]
< 5 | Cc1ccncc1-c1ccc2c(c1)COCC(=O)N2 [Compound 80, 7-(4-methylpyridin-3-yl)-1,5-dihydrobenzo[e][1,4]oxazepin-2(3H)-one]
< 5 | Cc1ccncc1-c1ccc2c(c1)C(F)(F)C(=O)N2 [Compound 81, 3,3-difluoro-5-(4-methylpyridin-3-yl)indolin-2-one]
< 5 | CCc1ccncc1-c1ccc2[nH]c(=O)oc2c1 [Compound 83, 6-(4-ethylpyridin-3-yl)benzo[d]oxazol-2(3H)-one]
< 5 | O=c1[nH]c2ccc(-c3cccnc3)cc2o1 [Compound 84, 6-(pyridin-3-yl)benzo[d]oxazol-2(3H)-one]
< 5 | Cc1ccncc1-c1ccc2[nH]c(=O)sc2c1 [Compound 86, 6-(4-methylpyridin-3-yl)benzo[d]thiazol-2(3H)-one]
< 5 | O=c1[nH]c2ccc(-c3cncc(Nc4ccccc4)c3)cc2o1 [Compound 87, 6-(5-(phenylamino)pyridin-3-yl)benzo[d]oxazol-2(3H)-one]
< 5 | Cc1ccncc1-c1ccc2[nH]c(C#N)cc2c1 [Compound 88, 5-(4-methylpyridin-3-yl)-1H-indole-2-carbonitrile]
< 5 | Cc1ccncc1-c1ccc2[nH]c(C#N)nc2c1 [Compound 89, 5-(4-methylpyridin-3-yl)-1H-benzo[d]imidazole-2-carbonitrile]
< 5 | COc1ccncc1-c1ccc2[nH]c(=O)oc2c1 [Compound 90, 6-(4-methoxypyridin-3-yl)benzo[d]oxazol-2(3H)-one]
< 5 | Cc1ccncc1-c1ccc2[nH]nc(C#N)c2c1 [Compound 92, 5-(4-methylpyridin-3-yl)-1H-indazole 3-carbonitrile]
< 5 | Cc1ccnnc1-c1ccc2[nH]c(=O)oc2c1 [Compound 94, 6-(4-methylpyridazin-3-yl)benzo[d]oxazol-2(3H)-one]
< 5 | O=c1[nH]c2ccc(-c3cncc(Nc4cccc(O)c4)c3)cc2o1 [Compound 95, 6-(5-((3-hydroxyphenyl)amino)pyridin-3-yl)benzo[d]oxazol-2(3H)-one]
< 5 | O=c1[nH]c2ccc(-c3cncc(Nc4cccc(Cl)c4)c3)cc2o1 [Compound 96, 6-(5-((3-chlorophenyl)amino)pyridin-3-yl)benzo[d]oxazol-2(3H)-one]
< 5 | COc1cccc(Nc2cncc(-c3ccc4[nH]c(=O)oc4c3)c2)c1 [Compound 97, 6-(5-((3-methoxyphenyl)amino)pyridin-3-yl)benzo[d]oxazol-2(3H)-one]
< 5 | Cc1ccc(Nc2cncc(-c3ccc4[nH]c(=O)oc4c3)c2)cc1 [Compound 98, 6-(5-(p-tolylamino)pyridin-3-yl)benzo[d]oxazol-2(3H)-one]
< 5 | O=c1[nH]c2ccc(-c3cncc(Nc4ccc5c(c4)NCCC5)c3)cc2o1 [Compound 99, 6-(5-((1,2,3,4-tetrahydroquinolin-7-yl)amino)pyridin-3-yl)benzo[d]oxazol-2(3)-one]
< 5 | O=c1[nH]c2ccc(-c3cncc(Nc4ccc(F)cc4)c3)cc2o1 [Compound 100, 6-(5-((4-fluorophenyl)amino)pyridin-3-yl)benzo[d]oxazol-2(3H)-one]
< 5 | O=c1[nH]c2ccc(-c3cncc(Nc4cccc(F)c4)c3)cc2o1 [Compound 101, 6-(5-((3-fluorophenyl)amino)pyridin-3-yl)benzo[d]oxazol-2(3H)-one]
< 5 | O=c1[nH]c2ccc(-c3cncc(Nc4ccccc4F)c3)cc2o1 [Compound 102, 6-(5-((2-fluorophenyl)amino)pyridin-3-yl)benzo[d]oxazol-2(3H)-one]
